Assay results taken from PubChem BioAssay AID2060626 (Molecular Pharmacology Branch, DTP, NCI, 2025).

Test system: 168753-222-R-J1-PDC complex spheroid viability
Experiment: Anticancer human tumor 168753-222-R-J1-PDC patient-derived bladder carcinoma cell line growth inhibition [CLK]
Conditions: for IC50: curve of first compound; for viability, T/C: stronger effect = lower value
Source text: A high-throughput screen of multi-cell type tumor spheroids was designed to identify active combinations of […] and targeted small molecules. Complex spheroids include a stromal component modeled by human endothelial cells (HUVEC) and fibroblasts modeled by human mesenchymal stem cells (MSCs). The concentration ranges selected for each drug and investigational agent were based upon clinically achievable concentrations if the clinical Cmax of the agent was known.
Compounds. The drugs and investigational agents: cirtuvivint (SM08502; NSC835563), CC-671 (NSC850746), vemurafenib (NSC761431), tapotoclax (NSC804041), sotorasib (NSC818433), adagrasib (NSC831453), MRTX-1133 (NSC836407), BAY2416964 (NSC825713), copanlisib (NSC816437), inavolisib (NSC800729), abemaciclib (NSC768073), osimertinib (NSC779217), entinostat (NSC756642), eltanexor (KPT-8602, NSC794443), venetoclax (NSC766270), ceralasertib (NSC777638), bortezomib (NSC756655), olaparib (NSC753686), talazoparib (NSC767125), alisertib (NSC759677), peposertib (NSC802822), gemcitabine (NSC613327), 5-fluorouracil (NSC19893), SN-38 (NSC673596), oxaliplatin (NSC266046), paclitaxel (NSC125973), and doxorubicin (NSC123127), were obtained from the National Cancer Institute (NCI) Developmental Therapeutics Program Chemical Repository. The FDA-approved anticancer drug set is available from the Developmental Therapeutics Program at https://dtp.cancer.gov/organization/dscb/obtaining/available plates.htm. […] The stock solutions were prepared in dimethyl sulfoxide (DMSO, Sigma-Aldrich, St. Louis, MO, cat. D2650), except for the platinum complexes which were prepared in saline (Quality Biological, Gaithersburg, MD, cat. 114-055-101), at 800-fold the tested concentration and stored at -70 degrees C prior to their use. All drugs and investigational agents were tested over a range starting from a high concentration at or near the clinical Cmax and decreasing in half-log increments. If the clinical Cmax for an agent had not been determined, the highest concentration tested was 10 microM.
Cell Culture. All cells were maintained in an incubator at 37 degrees C and 5% CO2 with 95% humidity. The PDC lines were cultured according to standard operating procedures established by the NCI PDMR. Briefly, all PDCs were thawed and cultured in Matrigel-coated flasks prepared with a working solution of 1X Ham's F-12 nutrient mix, without supplementation (Invitrogen, Waltham, MA, cat. 11765054), 100 U/mL penicillin-streptomycin (Invitrogen, cat. 15140122), and 2.5% Matrigel (Corning Inc., Corning, NY, cat. 354248) for the first three passages. The 947758-054-R-J2-PDC line was cultured in 6B/Colon 1A media, which includes advanced DMEM/F-12 (Thermo Fisher Scientific, cat. 12634028), 10 mM HEPES (Thermo Fisher Scientific, cat. 15630080), 1X GlutaMAX supplement (Thermo Fisher Scientific, cat. 35050061), 0.1 mg/mL primocin (InvivoGen, cat. ant-pm-2), 10% defined fetal bovine serum, heat inactivated (HyClone Laboratories Inc., cat. SH30070.03HI), 1.25 mM N-Acetyl-L-cysteine (Sigma-Aldrich, cat. A9165), 10 mM nicotinamide (Sigma-Aldrich, cat. N0636), 1X B-27 supplement (Thermo Fisher Scientific, cat. 17504044), 1X N-2 supplement (Thermo Fisher Scientific, cat. 17502048), and 10 microM Y-27632 dihydrochloride (Tocris Bioscience, cat. 1254). The 876862-298-R-J1-PDC was cultured in 6E media, which includes all 6B/Colon 1A media components plus 50% L-WRN conditioned media (ATCC, cat. CRL-3276), 50 ng/mL recombinant human EGF recombinant protein (hEGF; Thermo Fisher Scientific, cat. PHG0311), 10 ng/mL recombinant human fibroblast growth factor 10 (hGFG-10; PeproTech, cat. 100-26), 1 ng/mL recombinant human fibroblast growth factor 2 (hFGF-2; PeproTech, cat. 100-18B), and 1 µM prostaglandin E2 (PGE2; Tocris, cat. 2296). The 227483-062-R1-J1-PDC line was cultured in Panc media, containing all 6E components except hFGF-2, with the addition of 500 nM SB-431542 (Selleckchem, cat. S1067) and 10 nM gastrin (Tocris, cat. 3006). […]

[1] = second compound 0.0316 µM, first compound 0.0316 µM
[2] = second compound 0.0316 µM, first compound 0.1 µM
[3] = second compound 0.0316 µM, first compound 0.316 µM
[4] = second compound 0.0316 µM, first compound 1 µM
[5] = second compound 0.0316 µM, first compound 3.16 µM
[6] = second compound 0.0316 µM, first compound 10 µM
[7] = second compound 0.1 µM, first compound 0.0316 µM
[8] = second compound 0.1 µM, first compound 0.1 µM
[9] = second compound 0.1 µM, first compound 0.316 µM
[10] = second compound 0.1 µM, first compound 1 µM
[11] = second compound 0.1 µM, first compound 3.16 µM
[12] = second compound 0.1 µM, first compound 10 µM
[13] = second compound 0.316 µM, first compound 0.0316 µM
[14] = second compound 0.316 µM, first compound 0.1 µM
[15] = second compound 0.316 µM, first compound 0.316 µM
[16] = second compound 0.316 µM, first compound 1 µM
[17] = second compound 0.316 µM, first compound 3.16 µM
[18] = second compound 0.316 µM, first compound 10 µM
[19] = second compound 1 µM, first compound 0.0316 µM
[20] = second compound 1 µM, first compound 0.1 µM
[21] = second compound 1 µM, first compound 0.316 µM
[22] = second compound 1 µM, first compound 1 µM
[23] = second compound 1 µM, first compound 3.16 µM
[24] = second compound 1 µM, first compound 10 µM
[25] = second compound 3.16 µM, first compound 0.0316 µM
[26] = second compound 3.16 µM, first compound 0.1 µM
[27] = second compound 3.16 µM, first compound 0.316 µM
[28] = second compound 3.16 µM, first compound 1 µM
[29] = second compound 3.16 µM, first compound 3.16 µM
[30] = second compound 3.16 µM, first compound 10 µM
[31] = second compound 10 µM, first compound 0.0316 µM
[32] = second compound 10 µM, first compound 0.1 µM
[33] = second compound 10 µM, first compound 0.316 µM
[34] = second compound 10 µM, first compound 1 µM
[35] = second compound 10 µM, first compound 3.16 µM
[36] = second compound 10 µM, first compound 10 µM
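Also: viability measured after seven days of drug exposure.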
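For viability, T/C in this document: luminescence signal used as surrogate for viable cell amount; 100% = DMSO vehicle control wells.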

## CC(CO)NC(=O)c1cc(-c2ccc(Cl)cc2)nn(-c2cnn(C)c2)c1=O (centres undefined) + CNC(=O)c1ccc(Nc2nc(OC3CCCC3)c3c(-c4ccc5nc(C)oc5c4)c[nH]c3n2)c(OC)c1
Second compound 0.0316 µM
  IC50: > 10000 nM
Second compound 0.1 µM
  IC50: > 10000 nM
Second compound 0.316 µM
  IC50: > 10000 nM
Second compound 1 µM
  IC50: < 31.6 nM
Second compound 3.16 µM
  IC50: < 31.6 nM
Second compound 10 µM
  IC50: < 31.6 nM
[1]
  viability, T/C: 117%
[2]
  viability, T/C: 99.4%
[3]
  viability, T/C: 94.4%
[4]
  viability, T/C: 97.2%
[5]
  viability, T/C: 97.2%
[6]
  viability, T/C: 88.2%
[7]
  viability, T/C: 102%
[8]
  viability, T/C: 99.6%
[9]
  viability, T/C: 85.7%
[10]
  viability, T/C: 96.7%
[11]
  viability, T/C: 95%
[12]
  viability, T/C: 85.1%
[13]
  viability, T/C: 79.1%
[14]
  viability, T/C: 76.8%
[15]
  viability, T/C: 74.6%
[16]
  viability, T/C: 77.2%
[17]
  viability, T/C: 80.5%
[18]
  viability, T/C: 66.8%
[19]
  viability, T/C: 48.9%
[20]
  viability, T/C: 51.3%
[21]
  viability, T/C: 44%
[22]
  viability, T/C: 32.6%
[23]
  viability, T/C: 55.4%
[24]
  viability, T/C: 53.1%
[25]
  viability, T/C: 24.6%
[26]
  viability, T/C: 37%
[27]
  viability, T/C: 39.2%
[28]
  viability, T/C: 28%
[29]
  viability, T/C: 39.4%
[30]
  viability, T/C: 35.2%
[31]
  viability, T/C: 18.5%
[32]
  viability, T/C: 26.8%
[33]
  viability, T/C: 27.3%
[34]
  viability, T/C: 22.2%
[35]
  viability, T/C: 30%
[36]
  viability, T/C: 27.7%

## CC(=O)O[C@H]1C(=O)[C@@]2(C)[C@H]([C@H](OC(=O)c3ccccc3)[C@]3(O)C[C@H](OC(=O)[C@H](O)[C@@H](NC(=O)c4ccccc4)c4ccccc4)C(C)=C1C3(C)C)[C@]1(OC(C)=O)CO[C@@H]1C[C@@H]2O + CNC(=O)c1ccc(Nc2nc(OC3CCCC3)c3c(-c4ccc5nc(C)oc5c4)c[nH]c3n2)c(OC)c1
Second compound 0.0316 µM
  IC50: 130 nM
Second compound 0.1 µM
  IC50: > 10000 nM
Second compound 0.316 µM
  IC50: > 10000 nM
Second compound 1 µM
  IC50: < 31.6 nM
Second compound 3.16 µM
  IC50: < 31.6 nM
Second compound 10 µM
  IC50: < 31.6 nM
[1]
  viability, T/C: 74.5%
[2]
  viability, T/C: 39.9%
[3]
  viability, T/C: 30.9%
[4]
  viability, T/C: 33.1%
[5]
  viability, T/C: 53.4%
[6]
  viability, T/C: 53.2%
[7]
  viability, T/C: 80.8%
[8]
  viability, T/C: 64.2%
[9]
  viability, T/C: 64.6%
[10]
  viability, T/C: 67.7%
[11]
  viability, T/C: 86.6%
[12]
  viability, T/C: 88.2%
[13]
  viability, T/C: 79.1%
[14]
  viability, T/C: 80.5%
[15]
  viability, T/C: 77.5%
[16]
  viability, T/C: 79.9%
[17]
  viability, T/C: 85%
[18]
  viability, T/C: 93.9%
[19]
  viability, T/C: 52.3%
[20]
  viability, T/C: 34.7%
[21]
  viability, T/C: 41.2%
[22]
  viability, T/C: 29.4%
[23]
  viability, T/C: 52.9%
[24]
  viability, T/C: 62.7%
[25]
  viability, T/C: 20.9%
[26]
  viability, T/C: 22.2%
[27]
  viability, T/C: 26.7%
[28]
  viability, T/C: 31.1%
[29]
  viability, T/C: 29.9%
[30]
  viability, T/C: 36.4%
[31]
  viability, T/C: 20.9%
[32]
  viability, T/C: 18.6%
[33]
  viability, T/C: 23.8%
[34]
  viability, T/C: 29.1%
[35]
  viability, T/C: 35.4%
[36]
  viability, T/C: 31.4%
